Tests used:
Test in all cases: relative viability (nuclei count vs DMSO), 5 days (fraction); higher = more cells survive
201T = tested on: 201T
How it was run: (§1)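 Lung cancer cell lines were seeded in 1536-well plates and dosed by pin tool the next day, with either a single drug or a fixed anchor-drug dose combined with five library-drug doses (not always all listed) spaced in √10 steps. Five days later, one step fixed the cells and stained their nuclei (final 0.05% Triton X-100, 1% formaldehyde, 1 ug/ml Hoechst), and nuclei were counted on 4× images. Relative viability is the nuclei count in treated wells divided by the count in vehicle wells, and each value is the median of duplicate plates.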

A-427 = tested on: A-427
How it was run: as §1

COR-L23 = tested on: COR-L23
How it was run: as §1

HARA = tested on: HARA
How it was run: as §1

HCC-78 = tested on: HCC-78
How it was run: as §1

LCLC-103H = tested on: LCLC-103H
How it was run: as §1

LCLC-97TM1 = tested on: LCLC-97TM1
How it was run: as §1

LK-2 = tested on: LK-2
How it was run: as §1

LOU-NH91 = tested on: LOU-NH91
How it was run: as §1

LXF-289 = tested on: LXF-289
How it was run: as §1

NCI-H1651 = tested on: NCI-H1651
How it was run: as §1

NCI-H1793 = tested on: NCI-H1793
How it was run: as §1

NCI-H2347 = tested on: NCI-H2347
How it was run: as §1

NCI-H23 = tested on: NCI-H23
How it was run: as §1

NCI-H2405 = tested on: NCI-H2405
How it was run: as §1

NCI-H520 = tested on: NCI-H520
How it was run: as §1

NCI-H647 = tested on: NCI-H647
How it was run: as §1

NCI-H838 = tested on: NCI-H838
How it was run: as §1

PC-3 [JPC-3] = tested on: PC-3 [JPC-3]
How it was run: as §1

RERF-LC-KJ = tested on: RERF-LC-KJ
How it was run: as §1

UMC-11 = tested on: UMC-11
How it was run: as §1

For `CCNC(=O)c1noc(-c2cc(C(C)C)c(O)cc2O)c1-c1ccc(CN2CCOCC2)cc1` [Luminespib] + C[C@]1(O)C[C@@H](c2nc(-c3ccc4ccc(-c5ccccc5)nc4c3)c3c(N)nccn32)C1 [Linsitinib] (partner 1 µM), the relative viability (201T; first compound 0.002 µM) was 1.03, the relative viability (201T; first compound 0.006325 µM) was 0.988 and the relative viability (201T; first compound 0.02 µM) was 0.872. It also gave a relative viability (201T; first compound 0.06325 µM) of 1.08, a relative viability (201T; first compound 0.2 µM) of 1.01 and a relative viability (A-427; first compound 0.002 µM) of 1.12. For the same compound, the relative viability (A-427; first compound 0.006325 µM) was 1.09, the relative viability (A-427; first compound 0.02 µM) was 0.918 and the relative viability (A-427; first compound 0.06325 µM) was 1.12. For the same compound, the relative viability (A-427; first compound 0.2 µM) was 1.09, the relative viability (COR-L23; first compound 0.002 µM) was 0.946 and the relative viability (COR-L23; first compound 0.006325 µM) was 0.811. The relative viability (COR-L23; first compound 0.02 µM) was 1.03, the relative viability (COR-L23; first compound 0.06325 µM) was 0.0654 and the relative viability (COR-L23; first compound 0.2 µM) was 0.0696. For the same compound, the relative viability (HARA; first compound 0.002 µM) was 0.85, the relative viability (HARA; first compound 0.006325 µM) was 0.797 and the relative viability (HARA; first compound 0.02 µM) was 1.12. For the same compound, the relative viability (HARA; first compound 0.06325 µM) was 0.738, the relative viability (HARA; first compound 0.2 µM) was 0.0694 and the relative viability (HCC-78; first compound 0.002 µM) was 0.485. It also gave a relative viability (HCC-78; first compound 0.06325 µM) of 0.76, a relative viability (HCC-78; first compound 0.2 µM) of 0.251 and a relative viability (LCLC-103H; first compound 0.002 µM) of 1.14. The relative viability (LCLC-103H; first compound 0.006325 µM) was 0.971, the relative viability (LCLC-103H; first compound 0.02 µM) was 1.1 and the relative viability (LCLC-103H; first compound 0.06325 µM) was 1.03. It also gave a relative viability (LCLC-103H; first compound 0.2 µM) of 1.04, a relative viability (LCLC-97TM1; first compound 0.002 µM) of 0.213 and a relative viability (LCLC-97TM1; first compound 0.006325 µM) of 0.199. The relative viability (LCLC-97TM1; first compound 0.02 µM) was 0.154, the relative viability (LCLC-97TM1; first compound 0.06325 µM) was 0.174 and the relative viability (LCLC-97TM1; first compound 0.2 µM) was 0.192. It also gave a relative viability (LK-2; first compound 0.002 µM) of 0.747, a relative viability (LK-2; first compound 0.006325 µM) of 0.522 and a relative viability (LK-2; first compound 0.02 µM) of 0.455. The relative viability (LK-2; first compound 0.06325 µM) was 0.301, the relative viability (LK-2; first compound 0.2 µM) was 0.109 and the relative viability (LOU-NH91; first compound 0.002 µM) was 0.913. It also gave a relative viability (LOU-NH91; first compound 0.006325 µM) of 0.923, a relative viability (LOU-NH91; first compound 0.02 µM) of 0.649 and a relative viability (LOU-NH91; first compound 0.06325 µM) of 0.393. For the same compound, the relative viability (LOU-NH91; first compound 0.2 µM) was 0.348, the relative viability (LXF-289; first compound 0.002 µM) was 0.952 and the relative viability (LXF-289; first compound 0.006325 µM) was 0.879. The relative viability (LXF-289; first compound 0.02 µM) was 1.12, the relative viability (LXF-289; first compound 0.06325 µM) was 0.711 and the relative viability (LXF-289; first compound 0.2 µM) was 0.151. It also gave a relative viability (NCI-H1651; first compound 0.002 µM) of 0.874, a relative viability (NCI-H1651; first compound 0.006325 µM) of 0.983 and a relative viability (NCI-H1651; first compound 0.02 µM) of 1.08. For the same compound, the relative viability (NCI-H1651; first compound 0.06325 µM) was 0.308, the relative viability (NCI-H1651; first compound 0.2 µM) was 0.174 and the relative viability (NCI-H1793; first compound 0.002 µM) was 0.831. It also gave a relative viability (NCI-H1793; first compound 0.006325 µM) of 0.798, a relative viability (NCI-H1793; first compound 0.02 µM) of 0.326 and a relative viability (NCI-H1793; first compound 0.06325 µM) of 0.16. The relative viability (NCI-H1793; first compound 0.2 µM) was 0.147, the relative viability (NCI-H2347; first compound 0.002 µM) was 1.03 and the relative viability (NCI-H2347; first compound 0.02 µM) was 0.824. It also gave a relative viability (NCI-H2347; first compound 0.06325 µM) of 0.924, a relative viability (NCI-H2347; first compound 0.2 µM) of 0.404 and a relative viability (NCI-H23; first compound 0.002 µM) of 0.674. For the same compound, the relative viability (NCI-H23; first compound 0.006325 µM) was 0.55, the relative viability (NCI-H23; first compound 0.02 µM) was 0.355 and the relative viability (NCI-H23; first compound 0.06325 µM) was 0.172. It also gave a relative viability (NCI-H23; first compound 0.2 µM) of 0.136, a relative viability (NCI-H2405; first compound 0.002 µM) of 1.01 and a relative viability (NCI-H2405; first compound 0.006325 µM) of 0.721. The relative viability (NCI-H2405; first compound 0.02 µM) was 0.613, the relative viability (NCI-H2405; first compound 0.06325 µM) was 0.254 and the relative viability (NCI-H2405; first compound 0.2 µM) was 0.182. It also gave a relative viability (NCI-H520; first compound 0.002 µM) of 1.27, a relative viability (NCI-H520; first compound 0.006325 µM) of 0.966 and a relative viability (NCI-H520; first compound 0.02 µM) of 0.94. It also gave a relative viability (NCI-H520; first compound 0.06325 µM) of 0.134, a relative viability (NCI-H520; first compound 0.2 µM) of 0.121 and a relative viability (NCI-H647; first compound 0.002 µM) of 1.23. For the same compound, the relative viability (NCI-H647; first compound 0.006325 µM) was 1.26, the relative viability (NCI-H647; first compound 0.02 µM) was 0.914 and the relative viability (NCI-H647; first compound 0.06325 µM) was 0.0924. The relative viability (NCI-H647; first compound 0.2 µM) was 0.0826, the relative viability (NCI-H838; first compound 0.002 µM) was 1 and the relative viability (NCI-H838; first compound 0.006325 µM) was 0.942. The relative viability (NCI-H838; first compound 0.02 µM) was 0.77, the relative viability (NCI-H838; first compound 0.06325 µM) was 0.13 and the relative viability (NCI-H838; first compound 0.2 µM) was 0.149. It also gave a relative viability (PC-3 [JPC-3]; first compound 0.002 µM) of 0.963, a relative viability (PC-3 [JPC-3]; first compound 0.006325 µM) of 0.939 and a relative viability (PC-3 [JPC-3]; first compound 0.02 µM) of 0.991. For the same compound, the relative viability (PC-3 [JPC-3]; first compound 0.06325 µM) was 0.997, the relative viability (PC-3 [JPC-3]; first compound 0.2 µM) was 0.897 and the relative viability (RERF-LC-KJ; first compound 0.002 µM) was 0.9. For the same compound, the relative viability (RERF-LC-KJ; first compound 0.006325 µM) was 0.846, the relative viability (RERF-LC-KJ; first compound 0.02 µM) was 0.976 and the relative viability (RERF-LC-KJ; first compound 0.06325 µM) was 0.968. For the same compound, the relative viability (RERF-LC-KJ; first compound 0.2 µM) was 0.366, the relative viability (UMC-11; first compound 0.002 µM) was 0.997 and the relative viability (UMC-11; first compound 0.006325 µM) was 0.993. It also gave a relative viability (UMC-11; first compound 0.02 µM) of 0.962, a relative viability (UMC-11; first compound 0.06325 µM) of 0.648 and a relative viability (UMC-11; first compound 0.2 µM) of 0.181.
